Where two headings read alike, the source gives them in different places.
How the values were obtained:
recombinant human BACE-1 = recombinant human BACE-1 (Homo sapiens (Human), UniProt P56817); experiment: Beta-secretase (BACE) inhibition assay, fluorogenic enzymatic assay; type: biochemical
Method: Beta-Secretase (BACE) Inhibition Assay
Inhibitory potency against β-secretase (BACE) was measured using an enzymatic assay with a fluorogenic readout. 50 nM of recombinant human BACE-1 (R&D Systems) and test compound at one of various concentrations were added to a reaction buffer containing 20 mM sodium acetate at pH 4.8, with 0.06% Triton X-100, and 1% DMSO. […] The total volume of the assay solution was 100 μL. […] The slopes of the progress curves were the measure of reaction rates. Reaction rates were plotted as a function of inhibitor concentration, and the data were fit with a four-parameter logistic fit using Graphpad PRISM software to yield IC50 values.

[1] = Liver microsomal stability, human liver microsomes; conditions: for half-life at 1 uM: human, liver microsomes
[2] = system: HIV-1 (IIIB) in MT-4 cells; experiment: microbe, parasite or virus in culture; type: cell-based; conditions: HIV-1, read-out: MT4 EC50
recombinant HIV protease = recombinant HIV protease (Human immunodeficiency virus type 1 group M subtype B (isolate HXB2) (HIV-1), UniProt P04585); experiment: biochemical; type: biochemical
Method: HIV Protease Enzyme Inhibition (PI) Activity
Inhibitor potency against HIV protease was measured using an enzymatic assay with a fluorogenic readout. To a reaction buffer containing 100 mM ammonium acetate at pH 5.3, 100 mM NaCl, 1 mM EDTA, 1 mM DTT, 0.25 mg/mL BSA and 1% DMSO were added 10 nM of recombinant HIV protease (concentration based on protein monomer) and test compound at one of various concentrations. […] The total volume of the assay solution was 100 μL. […] The slopes of the progress curves were the measure of reaction rates. Reaction rates were plotted as a function of inhibitor concentration, and the data were fit with a four-parameter logistic fit using Graphpad PRISM software to yield IC50 values.

[3] = system: single replication cycle recombinant virus containing the protease and reverse transcriptase coding regions of HIV-1 from a patient blood sample; type: cell-based
Text: Resistance testing was done by Monogram Biosciences using their proprietary PhenoSense HIV assay.

[4] = Human immunodeficiency virus 1, IIIB, MT4, MT-4 cells
[5] = recombinant HIV protease, fluorogenic enzymatic assay, read-out: HIV PI IC50

Chain of recombinant human BACE-1 (P56817 46-501): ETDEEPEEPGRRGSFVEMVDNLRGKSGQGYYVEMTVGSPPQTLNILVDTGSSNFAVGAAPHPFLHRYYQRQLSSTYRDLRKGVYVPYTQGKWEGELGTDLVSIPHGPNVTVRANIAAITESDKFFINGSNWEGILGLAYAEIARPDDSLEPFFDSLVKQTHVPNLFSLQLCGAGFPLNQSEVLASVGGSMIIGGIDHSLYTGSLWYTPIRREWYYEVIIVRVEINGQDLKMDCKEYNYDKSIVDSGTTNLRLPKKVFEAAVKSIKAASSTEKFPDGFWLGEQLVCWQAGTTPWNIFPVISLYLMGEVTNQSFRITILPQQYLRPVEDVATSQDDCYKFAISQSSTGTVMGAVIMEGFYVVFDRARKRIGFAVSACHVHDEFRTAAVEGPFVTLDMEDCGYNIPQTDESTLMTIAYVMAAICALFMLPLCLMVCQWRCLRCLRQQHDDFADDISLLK

| SMILES | IC50 (recombinant human BACE-1) | half-life at 1 uM [1] | EC50 [2, 4] | other results |
| --- | --- | --- | --- | --- |
| CC(C)(C)C[C@]1(c2ccc(-c3cnn(C4CC4)n3)cc2)NC(=N)N([C@H](COC(=O)NC2(C(F)(F)F)CC2)c2ccc(Cl)c(-c3ncnn3C(F)F)c2)C1=O [Compound 146] | > 100000 nM | ≥ 6.58 h | 10.3 nM | – |
| CC(C)(C[C@]1(c2ccc(-c3cnn(C4CC4)n3)cc2)NC(=N)N([C@H](COC(=O)NC2(C(F)(F)F)CC2)c2ccc(Cl)c(-c3ncnn3C(F)F)c2)C1=O)C(F)(F)F [Compound 152] | > 100000 nM | ≥ 6.58 h | 13 nM | – |
| CC(C)(C[C@]1(c2ccc(-c3cnn(C4CC4)n3)cc2)NC(=N)N([C@H](COC(=O)NC2(C(F)F)CC2)c2ccc(Cl)c(-c3ncnn3C(F)F)c2)C1=O)C(F)(F)F [Compound 155] | > 100000 nM | ≥ 6.58 h | 9.87 nM | – |
| CC(C)(C)C[C@]1(c2ccc(-c3cnn(C4CC4)c3)cc2)NC(=N)N([C@H](COC(=O)NC2(C(F)(F)F)CC2)c2ccc(Cl)c(-c3ncnn3C(F)F)c2)C1=O [Compound 164] | – | – | – | IC50 (recombinant HIV protease; [5]): 2.6 nM; EC50 ([2]; MT-4 cells): 16.5 nM |
| CC(C)(F)C[C@]1(c2ccc(-c3cnn(C(F)F)c3)cc2)NC(=N)N([C@H](COC(=O)NC2(C(F)(F)F)CC2)c2ccc(Cl)c(-n3ncnc3C(F)F)c2)C1=O [Compound 194] | > 100000 nM | ≥ 6.58 h | 14.8 nM | – |
| CC(C)(C)C[C@]1(c2ccc(-c3cnn(C(F)F)c3)cc2F)NC(=N)N([C@H](COC(=O)NC2(C(F)(F)F)CC2)c2ccc(Cl)c(-n3ncnc3C(F)F)c2)C1=O [Compound 195] | > 100000 nM | ≥ 6.58 h | 10.5 nM | – |
| CC(C)(C)C[C@]1(c2ccc(-c3ccn(C4CC4)n3)cc2)NC(=N)N([C@H](COC(=O)NC2(C(F)(F)F)CC2)c2ccc(Cl)c(-n3ncnc3C(F)F)c2)C1=O [Compound 214] | – | – | 11.5 nM | IC50 (recombinant HIV protease): 3 nM |
| CC(C)(C)C[C@]1(c2ccc(-c3cnn(C4CC4)n3)cc2)NC(=N)N([C@H](COC(=O)NC2(C(F)(F)F)CC2)c2ccc(Cl)c(-n3ncnc3C(F)F)c2)C1=O [Compound 223] | > 100000 nM | ≥ 6.58 h | 13.1 nM | – |
| CC(C)(C)C[C@]1(c2ccc(-c3cnn(C(F)F)c3)cc2)NC(=N)N([C@H](COC(=O)NC2(C(F)(F)F)CC2)c2ccc(Cl)c(-n3cncn3)c2)C1=O [Compound 236] | > 100000 nM | ≥ 6.58 h | 10.6 nM | – |
| CC(C)(C)C[C@]1(c2ccc(-c3cnn(C(F)F)c3)cc2)NC(=N)N([C@H](COC(=O)NC(C)(C)C(F)(F)F)c2ccc(Cl)c(-n3cncn3)c2)C1=O [Compound 242] | > 100000 nM | ≥ 6.58 h | 6.83 nM | – |
| CC(C)(C[C@]1(c2ccc(-c3cnn(C4CC4)n3)cc2)NC(=N)N([C@H](COC(=O)NC2(C(F)(F)F)CC2)c2ccc(Cl)c(-n3ncnc3C(F)F)c2)C1=O)C(F)(F)F [Compound 270] | > 100000 nM | ≥ 6.58 h | 19.1 nM | – |
| C[C@H](NC(=O)OC[C@H](c1ccc(Cl)c(-n2ncnc2C(F)F)c1)N1C(=N)N[C@](CC(C)(C)C)(c2ccc(-c3cnn(C(F)F)c3)cc2)C1=O)C(F)(F)F [Compound 311] | > 100000 nM | ≥ 6.58 h | 7.01 nM | – |
| CC(C)(C)C[C@]1(c2ccc(-c3cnn(C(F)F)c3)cc2)NC(=N)N([C@H](COC(=O)NC2(C(F)(F)F)CC2)c2ccc(F)c(-n3ncnc3C(F)F)c2)C1=O [Compound 380] | – | – | – | IC50 (recombinant HIV protease; [5]): 3.5 nM; Half-life in human liver microsomes ([1]; human liver microsomes 0.5 mg/mL, 1 uM compound, NADPH-regenerating system, 37° C.): ≥ 6.58 h; EC50 ([2]; MT-4 cells): 29.2 nM |
| C[C@H](C(=O)NC[C@H](c1ccc(Cl)c(-n2ncnc2C(F)F)c1)N1C(=N)N[C@](CC(C)(C)C(F)(F)F)(c2ccc(-c3cnn(C4CC4)n3)cc2)C1=O)C(F)(F)F [Compound 389] | > 100000 nM | ≥ 6.58 h | 12.2 nM | – |
| COC(=O)N[C@H](C(=O)N[C@@H](Cc1ccccc1)[C@@H](O)CN(Cc1ccc(-c2ccccn2)cc1)NC(=O)[C@@H](NC(=O)OC)C(C)(C)C)C(C)(C)C [atazanavir, methyl N-[(2S)-1-[2-[(2S,3S)-2-hydroxy-3-[[(2S)-2-(methoxycarbonylamino)-3,3-dimethylbutanoyl]amino]-4-phenylbutyl]-2-[(4-pyridin-2-ylphenyl)methyl]hydrazinyl]-3,3-dimethyl-1-oxobutan-2-yl]carbamate] | – | 0.433 to 1.78 h | – | Fold change in EC50 ([3]; Resistance mutations D30N L33F N88D L90M): 5.27; Fold change in EC50 ([3]; Resistance mutations L10F M46I I47V I50V I54V G73S I84V L90M): 30.0; Fold change in EC50 ([3]; Resistance mutations L10F M46L I54V V82A I84V): >101; Fold change in EC50 ([3]; Resistance mutations L10F V32I M46I I47V I50V I54L I84V): 5.67; Fold change in EC50 ([3]; Resistance mutations L10I L33F G48V I50L I54V/I V82A): 87.0; Fold change in EC50 ([3]; Resistance mutations L10I L33F/L G48V G73S V82A): >101; Fold change in EC50 ([3]; Resistance mutations L10I M46I I50V): 1.99; Fold change in EC50 ([3]; Resistance mutations L10I V32I L33F M46L I54L I84V L89V): 97.0; Fold change in EC50 ([3]; Resistance mutations L10I V32I M46I I47V G48V I54M V82T L90M): 11.0; Fold change in EC50 ([3]; Resistance mutations L10I V32I M46I I47V I50V I54L L90M): 36.0; Fold change in EC50 ([3]; Resistance mutations L10V/L M46I I50L V82A): >101; Fold change in EC50 ([3]; Resistance mutations L33F M46I I50V L76V): 1.91 |

From patent US10774053B2, “HIV protease inhibitors” (Gilead Sciences, Inc., priority 2017, dated 2020)
